# Measured values published in US20180303807A1, “ANDROGEN RECEPTOR LIGANDS” (DUKE UNIVERSITY, priority 2015, published 2018).
# Assays:
# Type in all cases: cell-based
# CV1 cells = experiment: Toxicity of test compound in the CV1 reporter gene assay (Renilla-Luc)
# AR [1] = experiment: Real-time PCR of AR target gene transcription in LNCaP-AR (AR overexpressing) cells, CRPC model; set-up: key to B5 = Relative antagonist activity (plus 0.1 nM R1881) of test compounds (20 μM) in AR overexpressing LNCaP cells (NKX3.1 AR target gene) / B7 = Relative antagonist activity (plus 0.1 nM R1881) of test compounds (20 μM) in AR overexpressing LNCaP cells (PSA AR target gene): a score of 1 indicates higher antagonist efficacy (highly desired activity) than benchmark compound enzalutamide; a score of 2 indicates equal antagonist efficacy to enzalutamide (desirable); a score of 3 indicates antagonist efficacy between enzalutamide and bicalutamide (less desirable activity); a score of 4 indicates antagonist efficacy equal to bicalutamide (liability); a score of 5 indicates antagonist efficacy worse than bicalutamide (liability); key to B4 = Relative agonist activity (no R1881) of test compounds (20 μM) in AR overexpressing LNCaP cells (NKX3.1 AR target gene) / B6 Relative agonist activity (no R1881) of test compounds (20 μM) in AR overexpressing LNCaP cells (PSA AR target gene): a score of 1 indicates less agonism (highly desired activity) than benchmark compound enzalutamide; a score of 2 indicates equal agonism to enzalutamide (desirable); a score of 3 indicates agonism between enzalutamide and bicalutamide (less desirable activity); a score of 4 indicates equal agonism to bicalutamide (liability); a score of 5 indicates higher agonism than bicalutamide (liability); settings: 20 μM, score vs enzalutamide/bicalutamide; for B4 = Relative agonist activity (no R1881) of test compounds (20 μM) in AR overexpressing LNCaP cells (NKX3.1 AR target gene): no R1881, NKX3.1 gene; for B5 = Relative antagonist activity (plus 0.1 nM R1881) of test compounds (20 μM) in AR overexpressing LNCaP cells (NKX3.1 AR target gene): plus 0.1 nM R1881, NKX3.1 gene; for B7 = Relative antagonist activity (plus 0.1 nM R1881) of test compounds (20 μM) in AR overexpressing LNCaP cells (PSA AR target gene): plus 0.1 nM R1881, PSA gene
# Protocol: Real-Time PCR (CRPC model of AR overexpressing prostate cancer cells, Table 2, B4-B7). LNCaP-AR (AR overexpressing cells) cells were seeded in 12-well plates in RPMI 1640 (8% charcoal-stripped fetal calf serum (CFS)). […] AR target gene transcription (PSA, NKX3.1, FKBP5) was assessed by realtime PCR.
# For B4-B7, scoring system is based on the relative AR target gene agonist/antagonist activity of test compounds when compared to benchmark compounds enzalutamide or bicalutamide. […] The lack of agonist activity is desirable for therapies intended to treat CRPC. For B4 and B6, a score of 1 indicates less agonism (highly desired activity) than benchmark compound enzalutamide, a score of 2 indicates equal agonism to enzalutamide (desirable), a score of 3 indicates agonism between enzalutamide and bicalutamide (less desirable activity), a score of 4 indicates equal agonism to bicalutamide (liability), and a score of 5 indicates higher agonism than bicalutamide (liability). For B5 and B7 a score of 1 indicates higher antagonist efficacy (highly desired activity) than benchmark compound enzalutamide, a score of 2 indicates equal antagonist efficacy to enzalutamide (desirable), a score of 3 indicates antagonist efficacy between enzalutamide and bicalutamide (less desirable activity), a score of 4 indicates antagonist efficacy equal to bicalutamide (liability), and a score of 5 indicates antagonist efficacy worse than bicalutamide (liability) For B9, Compounds that degrade AR (greater than 50% degradation at 10 μM) are indicated.
# AR [2] = biological target: T1, AR (Homo sapiens, UniProt P10275, T878A); experiment: In Cell Western AR degradation assay in LNCaP cells; settings: 18 hrs, greater than 50% degradation at 10 μM (method says 20 μM)
# T1 construct: endogenous in cells; host or cells: LNCaP cells
# T1 sequence (P10275 1-920 T878A): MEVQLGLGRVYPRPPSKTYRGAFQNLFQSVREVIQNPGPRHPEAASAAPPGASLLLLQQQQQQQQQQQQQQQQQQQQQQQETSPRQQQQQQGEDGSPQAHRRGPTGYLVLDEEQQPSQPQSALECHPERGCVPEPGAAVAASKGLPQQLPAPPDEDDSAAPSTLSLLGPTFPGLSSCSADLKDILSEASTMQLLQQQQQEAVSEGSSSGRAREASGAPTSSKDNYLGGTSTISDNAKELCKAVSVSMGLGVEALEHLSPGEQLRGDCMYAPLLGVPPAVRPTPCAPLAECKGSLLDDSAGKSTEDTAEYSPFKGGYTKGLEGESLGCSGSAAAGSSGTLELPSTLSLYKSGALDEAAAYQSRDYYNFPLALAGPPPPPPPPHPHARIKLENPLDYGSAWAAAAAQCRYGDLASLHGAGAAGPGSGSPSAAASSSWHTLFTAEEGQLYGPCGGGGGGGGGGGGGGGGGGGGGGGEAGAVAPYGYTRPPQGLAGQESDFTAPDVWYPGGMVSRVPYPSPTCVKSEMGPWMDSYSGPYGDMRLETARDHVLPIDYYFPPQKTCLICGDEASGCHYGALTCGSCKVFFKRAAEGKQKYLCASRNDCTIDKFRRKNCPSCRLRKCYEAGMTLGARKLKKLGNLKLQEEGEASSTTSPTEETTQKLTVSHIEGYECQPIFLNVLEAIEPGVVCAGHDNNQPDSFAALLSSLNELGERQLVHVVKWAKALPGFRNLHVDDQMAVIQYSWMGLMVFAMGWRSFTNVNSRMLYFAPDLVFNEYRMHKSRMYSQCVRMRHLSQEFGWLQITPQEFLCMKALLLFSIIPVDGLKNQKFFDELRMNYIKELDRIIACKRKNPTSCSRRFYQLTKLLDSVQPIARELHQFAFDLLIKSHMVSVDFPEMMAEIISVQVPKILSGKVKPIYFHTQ
# Procedure, shortened: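 After 48 h plating in RPMI with 8% CFS, LNCaP cells were exposed to 20 μM test compound for 18 h, fixed with 3.7% formaldehyde and permeabilized. AR was detected with anti-AR N20 antibody and an infrared secondary, imaged by LI-COR Odyssey and normalized to DRAQ5 DNA stain.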
Compound,B2 = % Toxicity of test compound (20 μM) (CV1 cells) [%],B3 = % Toxicity of test compound (60 μM) (CV1 cells) [%],B4 = Relative agonist activity (no R1881) of test compounds (20 μM) in AR overexpressing LNCaP cells (NKX3.1 AR target gene) (AR [1]),B6 Relative agonist activity (no R1881) of test compounds (20 μM) in AR overexpressing LNCaP cells (PSA AR target gene) (AR [1]),B5 = Relative antagonist activity (plus 0.1 nM R1881) of test compounds (20 μM) in AR overexpressing LNCaP cells (NKX3.1 AR target gene) (AR [1]),B7 = Relative antagonist activity (plus 0.1 nM R1881) of test compounds (20 μM) in AR overexpressing LNCaP cells (PSA AR target gene) (AR [1]),B9 = AR degradation in LNCaP cells (In-Cell Western) (AR [2])
"O=C1CCCC2=C1C(c1ccc([N+](=O)[O-])cc1)c1c(ccc3ccccc13)N2 (stereo not drawn) [Compound A1, 12-(4-nitrophenyl)-8,9,10,12-tetrahydrobenzo[a]acridin-11(7H)-one]",32,87,1,1,2,2,Degrader (Compounds that degrade AR (greater than 50% degradation at 10 μM) are indicated)
CC1CC(=O)C2=C(C1)Nc1ccc3ccccc3c1C2c1ccc(F)cc1 (stereo not drawn) [Compound A4],0,51,1,1,1,1,Degrader (Compounds that degrade AR (greater than 50% degradation at 10 μM) are indicated)
O=C1CCCC2=C1Nc1ccc3ccccc3c1C2c1ccc([N+](=O)[O-])cc1 (stereo not drawn) [Compound A10],17,88,2,1,2,1,Degrader (Compounds that degrade AR (greater than 50% degradation at 10 μM) are indicated)
